Experimental data: US20070015818A1, “Cyclic sulfone containing retroviral protease inhibitors” (G.D. Searle & Co. (now G.D. Searle, LLC), priority 1995, published 2007)

Tested on: HIV
Experiment: EC50 of Table 1 (antiviral activity, method not described)
Type: cell-based
Details: Human immunodeficiency virus 1

Going from CC(C)CCN(C[C@@H](O)[C@H](Cc1ccccc1)NC(=O)C1CCCS(=O)(=O)C1)S(=O)(=O)c1ccccc1 (stereo partly drawn) [Example 8] to CC(C)CCN(C[C@@H](O)[C@H](Cc1ccccc1)NC(=O)C1CCCS(=O)(=O)C1)C(=O)NC(C)(C)Cn1ccnc1 (stereo partly drawn) [Example 4a], the EC50 rises from 19 nM to 295 nM (16-fold). The first is the more potent here.

In the case of CC(C)(C)NC(=O)[C@@H]1C[C@@H]2CCCC[C@@H]2CN1C[C@@H](O)[C@H](Cc1ccccc1)NC(=O)C1CCCS(=O)(=O)C1 (stereo partly drawn) [Example 7], the EC50 is reported as 12 nM.
